Measurements from US10723705B2, “Heterocyclic compounds and uses thereof” (Incyte Corporation, priority 2015, dated 2020).

The molecules below were run against Human recombinant Histone Deacetylase 8 (HDAC8) (Homo sapiens (Human), UniProt Q9BY41) (assay: HDAC8 Enzymatic Assay (HDAC-Glo I/II luminescence)). Conditions: HDAC8; read-out: IC50.
Format: biochemical
How it was run: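 Human recombinant HDAC8 (1.5 nM final) preincubated with compound for 30 min, then reacted with 50 μM Boc-GAK(Ac)-aminoluciferin plus trypsin-containing developer for 15 min at room temperature, pH 8.0, 0.5% DMSO. Luminescence read-out; IC50 from percent control activity versus log concentration.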

Human recombinant Histone Deacetylase 8 (HDAC8), sequence (Q9BY41 whole entry): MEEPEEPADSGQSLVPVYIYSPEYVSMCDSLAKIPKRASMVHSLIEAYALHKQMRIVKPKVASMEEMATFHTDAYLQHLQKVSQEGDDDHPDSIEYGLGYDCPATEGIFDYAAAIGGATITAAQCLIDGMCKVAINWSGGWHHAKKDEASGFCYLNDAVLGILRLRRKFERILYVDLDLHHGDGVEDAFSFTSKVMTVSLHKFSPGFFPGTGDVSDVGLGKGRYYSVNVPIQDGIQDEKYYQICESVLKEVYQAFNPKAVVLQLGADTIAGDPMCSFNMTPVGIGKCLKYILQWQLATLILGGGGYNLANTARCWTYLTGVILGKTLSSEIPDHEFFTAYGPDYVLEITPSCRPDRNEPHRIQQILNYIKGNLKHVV

IC50 [nM]	Compound
141	O=C(NO)C(Cc1ccccc1)n1ncc2cc(Cl)ccc21 (stereo not shown) [Compound I-0001, 2-(5-Chloro-1H-indazol-1-yl)-N-hydroxy-3-phenylpropanamide]
22	O=C(NO)C(Cc1ccccc1)n1nc2ccc(Cl)cc2c1C#CC1CC1 (stereo not shown) [Compound I-0005, 2-[5-Chloro-3-(cyclopropylethynyl)-2H-indazol-2-yl]-N-hydroxy-3-phenylpropanamide]
4.3	Cn1nccc1-c1nccc2c(C#CC3CC3)n(C(Cc3ccccc3)C(=O)NO)nc12 (stereo not shown) [Compound I-0128, 2-[3-(Cyclopropylethynyl)-7-(1-methyl-1H-pyrazol-5-yl)-2H-pyrazolo[3,4-c]pyridin-2-yl]-N-hydroxy-3-phenylpropanamide]

Same assay, conditions: class symbols, Table 14; read-out: HDAC8 IC50

IC50 [nM]	Compound
> 500	O=C(NO)C(Cc1ccccc1)n1ncc2cc(Br)ncc21 (stereo not shown) [Compound I-0099, 2-(5-bromo-1H-pyrazolo[3,4-c]pyridin-1-yl)-N-hydroxy-3-phenylpropanamide]
≤ 50	Cn1nccc1-c1cccc2c(C#CC3CC3)n(C(Cc3ccccc3)C(=O)NO)nc12 (stereo not shown) [Compound I-0137, 2-(3-(cyclopropylethynyl)-7-(1-methyl-1H-pyrazol-5-yl)-2H-indazol-2-yl)-N-hydroxy-3-phenylpropanamide]
200 to 500	COC1CCN(Cc2cccc3cn(C(Cc4ccccc4)C(=O)NO)nc23)CC1 (stereo not shown) [Compound I-0184, N-hydroxy-2-(7-((4-methoxypiperidin-1-yl)methyl)-2H-indazol-2-yl)-3-phenylpropanamide]
50 to 200	O=C(NO)C(Cc1ccccc1)n1nc2c(Cl)nccc2c1I (stereo not shown) [Compound I-0125, 2-(7-chloro-3-iodo-2H-pyrazolo[3,4-c]pyridin-2-yl)-N-hydroxy-3-phenylpropanamide]
50 to 200	Cn1cc(-c2ccc3nn(C(Cc4ccccc4)C(=O)NO)c(C#CC4CC4)c3c2)cn1 (stereo not shown) [Compound I-0044, 2-(3-(cyclopropylethynyl)-5-(1-methyl-1H-pyrazol-4-yl)-2H-indazol-2-yl)-N-hydroxy-3-phenylpropanamide]
≤ 50	O=C(NO)C(Cc1ccccc1)n1nc2c(-c3cncnc3)nccc2c1C#CC1CC1 (stereo not shown) [Compound I-0207, 2-(3-(cyclopropylethynyl)-7-(pyrimidin-5-yl)-2H-pyrazolo[3,4-c]pyridin-2-yl)-N-hydroxy-3-phenylpropanamide]
50 to 200	O=C(NO)C(Cc1ccccc1)n1ncc2cc(Cl)ccc21 (stereo not shown) [Compound I-0001, 2-(5-Chloro-1H-indazol-1-yl)-N-hydroxy-3-phenylpropanamide]
50 to 200	O=C(NO)C(Cc1ccccc1)n1ncc2nc(-c3cncnc3)ccc21 (stereo not shown) [Compound I-0074, N-hydroxy-3-phenyl-2-(5-(pyrimidin-5-yl)-1H-pyrazolo[4,3-b]pyridin-1-yl)propanamide]
200 to 500	O=C(NO)C(Cc1ccccc1)n1cc2cncc(C#CC3CC3)c2n1 (stereo not shown) [Compound I-0053, 2-(7-(cyclopropylethynyl)-2H-pyrazolo[4,3-c]pyridin-2-yl)-N-hydroxy-3-phenylpropanamide]
> 500	O=C(NO)C(Cc1ccccc1)n1ncc2cc(-c3ccccc3)ncc21 (stereo not shown) [Compound I-0086, N-hydroxy-3-phenyl-2-(5-phenyl-1H-pyrazolo[3,4-c]pyridin-1-yl)propanamide]
> 500	O=C(NO)C(Cc1ccccc1)n1cc2cccc(CN3CCC4(CCOCC4)CC3)c2n1 (stereo not shown) [Compound I-0187, 2-(7-(3-oxa-9-azaspiro[5.5]undecan-9-ylmethyl)-2H-indazol-2-yl)-N-hydroxy-3-phenylpropanamide]
200 to 500	O=C(NO)C(Cc1ccccc1)n1ncc2cnccc21 (stereo not shown) [Compound I-0042, N-hydroxy-3-phenyl-2-(1H-pyrazolo[4,3-c]pyridin-1-yl)propanamide]
> 500	Cc1nn(C)c(C)c1-c1cccc2cn(C(Cc3ccccc3)C(=O)NO)nc12 (stereo not shown) [Compound I-0111, N-hydroxy-3-phenyl-2-(7-(1,3,5-trimethyl-1H-pyrazol-4-yl)-2H-indazol-2-yl)propanamide]
≤ 50	O=C(NO)C(Cc1ccccc1)n1nc2c(C3CC3)cccc2c1C#CC1CC1 (stereo not shown) [Compound I-0160, 2-(7-cyclopropyl-3-(cyclopropylethynyl)-2H-indazol-2-yl)-N-hydroxy-3-phenylpropanamide]
200 to 500	O=C(NO)C(Cc1ccccc1)n1cc2ccccc2n1 (stereo not shown) [Compound I-0002, N-hydroxy-2-(2H-indazol-2-yl)-3-phenylpropanamide]
50 to 200	O=C(NO)C(Cc1ccccc1)n1ncc2cc(-c3cncnc3)ccc21 (stereo not shown) [Compound I-0012, N-hydroxy-3-phenyl-2-(5-(pyrimidin-5-yl)-1H-indazol-1-yl)propanamide]
≤ 50	O=C(NO)C(Cc1ccccc1)n1nc2ccc(Cl)cc2c1C#CC1CC1 (stereo not shown) [Compound I-0005, 2-[5-Chloro-3-(cyclopropylethynyl)-2H-indazol-2-yl]-N-hydroxy-3-phenylpropanamide]
> 500	O=C(NO)C(Cc1ccccc1)n1ncc2cc(-c3ccncc3)cnc21 (stereo not shown) [Compound I-0133, N-hydroxy-3-phenyl-2-(5-(pyridin-4-yl)-1H-pyrazolo[3,4-b]pyridin-1-yl)propanamide]
50 to 200	CN1CCN(c2ccc(-c3cccc4nn(C(Cc5ccccc5)C(=O)NO)cc34)cc2)CC1 (stereo not shown) [Compound I-0148, N-hydroxy-2-(4-(4-(4-methylpiperazin-1-yl)phenyl)-2H-indazol-2-yl)-3-phenylpropanamide]
≤ 50	NC(=O)c1ccc(-c2nccc3c(C#CC4CC4)n(C(Cc4ccccc4)C(=O)NO)nc23)cc1 (stereo not shown) [Compound I-0140, 4-(3-(cyclopropylethynyl)-2-(1-(hydroxyamino)-1-oxo-3-phenylpropan-2-yl)-2H-pyrazolo[3,4-c]pyridin-7-yl)benzamide]

IC50 [nM]	Compound
> 500	CN(C)C(=O)c1ccc(-c2cccn3c(C(Cc4ccccc4)C(=O)NO)cnc23)cc1 (stereo not shown) [Compound I-0168, 4-(3-(1-(hydroxyamino)-1-oxo-3-phenylpropan-2-yl)imidazo[1,2-a]pyridin-8-yl)-N,N-dimethylbenzamide]
≤ 50	COCCn1cc(-c2cccc3c(C#CC4CC4)n(C(Cc4ccccc4)C(=O)NO)nc23)c(C)n1 (stereo not shown) [Compound I-0165, 2-(3-(cyclopropylethynyl)-7-(1-(2-methoxyethyl)-3-methyl-1H-pyrazol-4-yl)-2H-indazol-2-yl)-N-hydroxy-3-phenylpropanamide]
50 to 200	O=C(NO)C(Cc1ccccc1)n1ncc2c(-c3cncnc3)cccc21 (stereo not shown) [Compound I-0081, N-hydroxy-3-phenyl-2-(4-(pyrimidin-5-yl)-1H-indazol-1-yl)propanamide]
50 to 200	O=C(NO)C(Cc1ccccc1)n1ncc2cc(C3CCC(N4CCCC4)CC3)ccc21 (stereo not shown) [Compound I-0153, N-hydroxy-3-phenyl-2-(5-(4-(pyrrolidin-1-yl)cyclohexyl)-1H-indazol-1-yl)propanamide]
> 500	O=C(NO)C(Cc1ccccc1)n1cc2cc(Br)ccc2n1 (stereo not shown) [Compound I-0024, 2-(5-bromo-2H-indazol-2-yl)-N-hydroxy-3-phenylpropanamide]
50 to 200	O=C(NO)C(Cc1ccccc1)n1nc(I)c2ccnc(Cl)c21 (stereo not shown) [Compound I-0124, 2-(7-chloro-3-iodo-1H-pyrazolo[3,4-c]pyridin-1-yl)-N-hydroxy-3-phenylpropanamide]
200 to 500	O=C(NO)C(Cc1ccccc1)n1cc2cc(Br)cnc2n1 (stereo not shown) [Compound I-0123, 2-(5-bromo-2H-pyrazolo[3,4-b]pyridin-2-yl)-N-hydroxy-3-phenylpropanamide]
200 to 500	O=C(NO)C(Cc1ccccc1)n1ncc2cc(-c3ccccc3)ccc21 (stereo not shown) [Compound I-0013, N-hydroxy-3-phenyl-2-(5-phenyl-1H-indazol-1-yl)propanamide]
200 to 500	O=C(NO)C(Cc1ccccc1)n1cc2ccc(-c3cncnc3)cc2n1 (stereo not shown) [Compound I-0007, N-hydroxy-3-phenyl-2-(6-(pyrimidin-5-yl)-2H-indazol-2-yl)propanamide]
> 500	O=C(NO)C(Cc1ccccc1)n1cc2c(Cl)nccc2n1 (stereo not shown) [Compound I-0056, 2-(4-chloro-2H-pyrazolo[4,3-c]pyridin-2-yl)-N-hydroxy-3-phenylpropanamide]
≤ 50	NC(=O)c1ccc(-c2ccc3nn(C(Cc4ccccc4)C(=O)NO)c(C#CC4CC4)c3c2)cc1 (stereo not shown) [Compound I-0026, 4-(3-(cyclopropylethynyl)-2-(1-(hydroxyamino)-1-oxo-3-phenylpropan-2-yl)-2H-indazol-5-yl)benzamide]
200 to 500	Cn1cc(-c2cnc3c(cnn3C(Cc3ccccc3)C(=O)NO)c2)cn1 (stereo not shown) [Compound I-0120, N-hydroxy-2-(5-(1-methyl-1H-pyrazol-4-yl)-1H-pyrazolo[3,4-b]pyridin-1-yl)-3-phenylpropanamide]
≤ 50	Cn1nccc1-c1nccc2c(C#CC3CC3)n(C(Cc3ccccc3)C(=O)NO)nc12 (stereo not shown) [Compound I-0128, 2-[3-(Cyclopropylethynyl)-7-(1-methyl-1H-pyrazol-5-yl)-2H-pyrazolo[3,4-c]pyridin-2-yl]-N-hydroxy-3-phenylpropanamide]
> 500	O=C(NO)C(Cc1ccccc1)n1ncc2cc(-c3ccccc3)cnc21 (stereo not shown) [Compound I-0116, N-hydroxy-3-phenyl-2-(5-phenyl-1H-pyrazolo[3,4-b]pyridin-1-yl)propanamide]
50 to 200	O=C(NO)C(Cc1ccccc1)n1nc2ccc(-c3cccnc3)cc2c1C#CC1CC1 (stereo not shown) [Compound I-0045, 2-(3-(cyclopropylethynyl)-5-(pyridin-3-yl)-2H-indazol-2-yl)-N-hydroxy-3-phenylpropanamide]
200 to 500	O=C(NO)C(Cc1ccccc1)n1ncc2cc(-c3cccnc3)ncc21 (stereo not shown) [Compound I-0095, N-hydroxy-3-phenyl-2-(5-(pyridin-3-yl)-1H-pyrazolo[3,4-c]pyridin-1-yl)propanamide]
> 500	O=C(NO)C(Cc1ccccc1)n1cc2c(N3CCOCC3)cccc2n1 (stereo not shown) [Compound I-0059, N-hydroxy-2-(4-morpholino-2H-indazol-2-yl)-3-phenylpropanamide]
200 to 500	O=C(NO)C(Cc1ccccc1)n1cc2c(n1)CCCC2 (stereo not shown) [Compound I-0200, N-hydroxy-3-phenyl-2-(4,5,6,7-tetrahydro-2H-indazol-2-yl)propanamide]
200 to 500	O=C(NO)C(Cc1ccccc1)n1ncc2cc(-c3cccnc3)cnc21 (stereo not shown) [Compound I-0132, N-hydroxy-3-phenyl-2-(5-(pyridin-3-yl)-1H-pyrazolo[3,4-b]pyridin-1-yl)propanamide]
200 to 500	Cc1nn(C)c(C)c1-c1ccc2c(cnn2C(Cc2ccccc2)C(=O)NO)c1 (stereo not shown) [Compound I-0103, N-hydroxy-3-phenyl-2-(5-(1,3,5-trimethyl-1H-pyrazol-4-yl)-1H-indazol-1-yl)propanamide]
